Reference: PubChem BioAssay (NCI)
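Dose response: 5 concentrations. Exposure: 48 h. Format: 96-well plates. Endpoint: linear interpolation; highest concentration if not reached. TGI: total growth inhibition.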

Key:
Assay in all cases: NCI tumour cell line growth inhibition, 48 h
[1] = system: DU-145 prostate
[2] = system: RXF 393 renal
[3] = system: EKVX NSCLC
[4] = system: HCT-15 colon
[5] = system: OVCAR-5 ovarian
[6] = system: UACC-62 melanoma
[7] = system: UACC-257 melanoma
[8] = system: A549 NSCLC
[9] = system: SNB-19 CNS
[10] = system: NCI-H23 lung
[11] = system: HOP-62 NSCLC
[12] = system: OVCAR-8 ovarian
[13] = system: ACHN renal
[14] = system: HOP-92 NSCLC
[15] = system: COLO 205 colon
[16] = system: SR leukemia
[17] = system: MALME-3M melanoma
[18] = system: SF-268 CNS
[19] = system: SF-295 CNS
[20] = system: PC-3 prostate
[21] = system: MDA-N
[22] = system: HCC-2998 colon
[23] = system: NCI-H226 lung
[24] = system: CCRF-CEM leukemia
[25] = system: NCI-H522 lung
[26] = system: MDA-MB-231 breast
[27] = system: SK-MEL-5 melanoma
[28] = system: OVCAR-4 ovarian
[29] = system: HL-60(TB) leukemia
[30] = system: KM12 colon
[31] = system: SK-OV-3 ovarian
[32] = system: SK-MEL-28 melanoma
[33] = system: U251 CNS
[34] = system: NCI-H460 lung
[35] = system: M14 melanoma
[36] = system: SN12C renal
[37] = system: A498 renal
[38] = system: SW-620 colon
[39] = system: HS 578T breast
[40] = system: NCI/ADR-RES ovarian
[41] = system: CAKI-1 renal
[42] = system: RPMI-8226 leukemia
[43] = system: IGROV1 ovarian
[44] = system: HT29 colon
[45] = system: HCT-116 colon
[46] = system: OVCAR-3 ovarian
[47] = system: K-562 leukemia
[48] = system: BT-549 breast
[49] = system: T-47D breast
[50] = system: LOX IMVI melanoma
[51] = system: SF-539 CNS
[52] = system: UO-31 renal
[53] = system: SNB-75 CNS
[54] = system: MOLT-4 leukemia
[55] = system: TK-10 renal
[56] = system: 786-0 renal
[57] = system: MDA-MB-435
[58] = system: SK-MEL-2 melanoma
[59] = system: MCF7 breast

SMILES: COc1ccc2c(c1)C(=O)C1(C2)[C@H](c2ccccc2)C2C(=O)c3cc(OC)ccc3C2[C@H]1c1ccccc1 (stereo partly specified)
- TGI [1]: > 100 µM
- TGI [2]: > 100 µM
- TGI [3]: > 100 µM
- TGI [4]: > 100 µM
- TGI [5]: > 100 µM
- TGI [6]: > 100 µM
- TGI [7]: > 100 µM
- TGI [8]: > 100 µM
- TGI [9]: > 100 µM
- TGI [10]: > 100 µM
- TGI [11]: > 100 µM
- TGI [12]: > 100 µM
- TGI [13]: > 100 µM
- TGI [14]: > 100 µM
- TGI [15]: > 100 µM
- TGI [16]: > 100 µM
- TGI [17]: > 100 µM
- TGI [18]: > 100 µM
- TGI [19]: > 100 µM
- TGI [20]: > 100 µM
- TGI [21]: > 100 µM
- TGI [22]: > 100 µM
- TGI [23]: > 100 µM
- TGI [24]: > 100 µM
- TGI [25]: > 100 µM
- TGI [26]: > 100 µM
- TGI [27]: > 100 µM
- TGI [28]: > 100 µM
- TGI [29]: > 100 µM
- TGI [30]: > 100 µM
- TGI [31]: > 100 µM
- TGI [32]: > 100 µM
- TGI [33]: > 100 µM
- TGI [34]: > 100 µM
- TGI [35]: > 100 µM
- TGI [36]: > 100 µM
- TGI [37]: > 100 µM
- TGI [38]: > 100 µM
- TGI [39]: > 100 µM
- TGI [40]: > 100 µM
- TGI [41]: 5.63 µM
- TGI [42]: > 100 µM
- TGI [43]: > 100 µM
- TGI [44]: > 100 µM
- TGI [45]: > 100 µM
- TGI [46]: > 100 µM
- TGI [47]: > 100 µM
- TGI [48]: > 100 µM
- TGI [49]: > 100 µM
- TGI [50]: > 100 µM
- TGI [51]: > 100 µM
- TGI [52]: > 100 µM
- TGI [53]: > 100 µM
- TGI [54]: > 100 µM
- TGI [55]: > 100 µM
- TGI [56]: > 100 µM
- TGI [57]: > 100 µM

SMILES: CC(CO)CCC(O)C(C)(O)C1CCC2(O)C3=CC(=O)C4CC(O)C(O)CC4(C)C3CCC12C (stereo unspecified)
- TGI [1]: > 100 µM
- TGI [2]: > 100 µM
- TGI [3]: > 100 µM
- TGI [4]: > 100 µM
- TGI [5]: > 100 µM
- TGI [6]: > 100 µM
- TGI [7]: > 100 µM
- TGI [8]: > 100 µM
- TGI [9]: > 100 µM
- TGI [10]: > 100 µM
- TGI [11]: > 100 µM
- TGI [12]: > 100 µM
- TGI [13]: > 100 µM
- TGI [14]: > 100 µM
- TGI [15]: > 100 µM
- TGI [16]: > 100 µM
- TGI [17]: > 100 µM
- TGI [19]: > 100 µM
- TGI [20]: > 100 µM
- TGI [21]: > 100 µM
- TGI [22]: > 100 µM
- TGI [23]: > 100 µM
- TGI [24]: > 100 µM
- TGI [58]: > 100 µM
- TGI [25]: > 100 µM
- TGI [26]: > 100 µM
- TGI [27]: > 100 µM
- TGI [28]: > 100 µM
- TGI [29]: > 100 µM
- TGI [30]: > 100 µM
- TGI [31]: > 100 µM
- TGI [32]: > 100 µM
- TGI [33]: > 100 µM
- TGI [34]: > 100 µM
- TGI [35]: > 100 µM
- TGI [36]: > 100 µM
- TGI [37]: > 100 µM
- TGI [38]: > 100 µM
- TGI [40]: > 100 µM
- TGI [41]: > 100 µM
- TGI [42]: > 100 µM
- TGI [44]: > 100 µM
- TGI [45]: > 100 µM
- TGI [46]: > 100 µM
- TGI [47]: > 100 µM
- TGI [48]: > 100 µM
- TGI [50]: > 100 µM
- TGI [51]: > 100 µM
- TGI [52]: > 100 µM
- TGI [59]: > 100 µM
- TGI [53]: > 100 µM
- TGI [54]: > 100 µM
- TGI [56]: > 100 µM
- TGI [57]: > 100 µM
